According to publication PMC6572064, “Discovery of 2-(1-(3-(4-Chloroxyphenyl)-3-oxo- propyl)pyrrolidine-3-yl)-1H-benzo[d]imidazole-4-carboxamide: A Potent Poly(ADP-ribose) Polymerase (PARP) Inhibitor for Treatment of Cancer” (Molecules, 2019):
Where two headings read alike, the source gives them in different places.

How the values were obtained:
[1] = system: MDA-MB-436 (a BRCA-1-mutated breast cancer cell line); assay: Cell proliferation assay, three-day, CellTiter-Glo, MDA-MB-436; format: cell-based; details: Homo sapiens; for inhibition at 0.00508 µM: MDA-MB-436, MDA-MB-436, Conc. 0.00508 uM; for inhibition at 0.0152 µM: MDA-MB-436, MDA-MB-436, Conc. 0.0152 uM; for inhibition at 0.0457 µM: MDA-MB-436, MDA-MB-436, Conc. 0.0457 uM; for inhibition at 0.41 µM: MDA-MB-436, MDA-MB-436, Conc. 0.41 uM; for inhibition at 1.23 µM: MDA-MB-436, MDA-MB-436, Conc. 1.23 uM; for inhibition at 3.7 µM: MDA-MB-436, MDA-MB-436, Conc. 3.70 uM; for inhibition at 11.11 µM: MDA-MB-436, MDA-MB-436, Conc. 11.11 uM; for inhibition at 33.33 µM: MDA-MB-436, MDA-MB-436, Conc. 33.33 uM; for inhibition at 100 µM: MDA-MB-436, MDA-MB-436, Conc. 100.00 uM; for IC50: MDA-MB-436, 72 h, CellTiter-Glo, read-out: MDA-MB-436 IC50
Method in brief: (§1)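 Luminescent ATP read-out (CellTiter-Glo, 60 min at room temperature) quantified viability after a 72 h compound exposure at 37 °C, 5% CO2. Compounds, diluted from DMSO stocks into growth medium, were added to cells plated the previous day.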

[2] = biological target: T1, PARP-1 (Homo sapiens, UniProt P09874); assay: PARP-1 inhibition assay (PARP-1 Chemiluminescent Assay Kit, BPS Bioscience); format: biochemical
T1 construct: purchased BPS Bioscience 80569
T1 sequence (P09874 whole entry): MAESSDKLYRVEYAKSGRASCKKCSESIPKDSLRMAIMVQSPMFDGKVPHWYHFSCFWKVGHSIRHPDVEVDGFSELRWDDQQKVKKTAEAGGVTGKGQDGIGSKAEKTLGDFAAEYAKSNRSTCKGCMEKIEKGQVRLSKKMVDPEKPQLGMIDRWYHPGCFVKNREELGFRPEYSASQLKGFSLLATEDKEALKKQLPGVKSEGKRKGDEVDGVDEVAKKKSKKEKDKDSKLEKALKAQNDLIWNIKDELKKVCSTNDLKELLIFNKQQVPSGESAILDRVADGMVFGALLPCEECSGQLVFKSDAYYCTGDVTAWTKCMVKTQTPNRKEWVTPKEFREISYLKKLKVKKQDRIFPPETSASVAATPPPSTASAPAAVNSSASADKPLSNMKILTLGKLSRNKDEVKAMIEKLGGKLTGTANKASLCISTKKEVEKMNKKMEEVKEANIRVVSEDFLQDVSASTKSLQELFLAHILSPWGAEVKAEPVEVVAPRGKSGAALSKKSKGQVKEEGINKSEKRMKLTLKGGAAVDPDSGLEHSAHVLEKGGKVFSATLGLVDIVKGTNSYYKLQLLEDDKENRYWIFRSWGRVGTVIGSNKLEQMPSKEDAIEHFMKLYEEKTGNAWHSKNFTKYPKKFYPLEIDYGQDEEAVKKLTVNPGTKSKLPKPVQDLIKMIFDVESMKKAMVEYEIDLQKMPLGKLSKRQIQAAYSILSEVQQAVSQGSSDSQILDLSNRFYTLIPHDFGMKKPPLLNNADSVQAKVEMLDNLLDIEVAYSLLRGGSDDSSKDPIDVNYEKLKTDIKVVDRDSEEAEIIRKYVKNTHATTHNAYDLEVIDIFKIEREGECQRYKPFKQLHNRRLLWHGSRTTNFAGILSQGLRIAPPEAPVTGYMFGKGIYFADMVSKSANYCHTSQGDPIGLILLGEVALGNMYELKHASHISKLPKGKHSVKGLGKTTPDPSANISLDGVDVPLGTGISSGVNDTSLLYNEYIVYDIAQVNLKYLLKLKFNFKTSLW
Description: (§2) The PARP-1 and PARP-2 inhibition assays were performed in outsourcing, by a CRO company, Shanghai Medicilon Inc. (Shanghai, China). […] Briefly, PARP-1 or PARP-2 biotinylated substrate was incubated with compounds or solvent control at varying concentrations and an assay buffer containing the PARP-1 or PARP-2 enzyme.

[3] = biological target: T2, PARP-2 (Homo sapiens, UniProt Q9UGN5); assay: PARP-2 inhibition assay (PARP-2 Chemiluminescent Assay Kit, BPS Bioscience); format: biochemical
T2 construct: purchased BPS Bioscience 80552
T2 sequence (Q9UGN5 whole entry): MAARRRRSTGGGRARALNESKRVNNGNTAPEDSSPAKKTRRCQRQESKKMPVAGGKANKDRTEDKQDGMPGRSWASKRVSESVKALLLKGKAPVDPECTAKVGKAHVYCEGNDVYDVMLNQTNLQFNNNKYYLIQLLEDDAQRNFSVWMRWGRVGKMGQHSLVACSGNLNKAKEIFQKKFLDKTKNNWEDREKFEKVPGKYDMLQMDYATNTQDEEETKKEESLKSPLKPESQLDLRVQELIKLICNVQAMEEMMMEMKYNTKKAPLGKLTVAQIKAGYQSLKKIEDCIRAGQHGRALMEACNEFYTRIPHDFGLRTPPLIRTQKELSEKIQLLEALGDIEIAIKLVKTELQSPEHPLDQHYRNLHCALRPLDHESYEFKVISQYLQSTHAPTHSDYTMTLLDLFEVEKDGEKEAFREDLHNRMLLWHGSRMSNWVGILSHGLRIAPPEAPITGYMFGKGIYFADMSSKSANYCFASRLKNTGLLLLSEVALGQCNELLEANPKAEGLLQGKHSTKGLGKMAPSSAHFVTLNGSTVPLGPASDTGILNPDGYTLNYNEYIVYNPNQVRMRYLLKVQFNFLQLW
Description: as §2

[4] = system: CAPAN-1 (a BRCA-2-mutated pancreatic cancer cell line); assay: Cell proliferation assay, three-day, CellTiter-Glo, CAPAN-1; format: cell-based; details: for IC50 / inhibition at 0.00508 µM / inhibition at 0.0152 µM / inhibition at 0.0457 µM / inhibition at […] / inhibition at 0.41 µM / inhibition at 1.23 µM / inhibition at 3.7 µM / inhibition at 11.11 µM / inhibition at 33.33 µM / inhibition at 100 µM: Homo sapiens; for IC50: CAPAN-1, read-out: CAPAN-1 IC50; for inhibition at 0.00508 µM: CAPAN-1, Conc. 0.00508 uM; for inhibition at 0.0152 µM: CAPAN-1, Conc. 0.0152 uM; for inhibition at 0.0457 µM: CAPAN-1, Conc. 0.0457 uM; for inhibition at […]: CAPAN-1, Conc. 0.14 uM; for inhibition at 0.41 µM: CAPAN-1, Conc. 0.41 uM; for inhibition at 1.23 µM: CAPAN-1, Conc. 1.23 uM; for inhibition at 3.7 µM: CAPAN-1, Conc. 3.70 uM; for inhibition at 11.11 µM: CAPAN-1, Conc. 11.11 uM; for inhibition at 33.33 µM: CAPAN-1, Conc. 33.33 uM; for inhibition at 100 µM: CAPAN-1, Conc. 100.00 uM
Method in brief: as §1

SMILES: NC(=O)c1cccc2[nH]c(C3CCN(CCNC(=O)c4ccccc4)C3)nc12 (stereo not drawn) [Compound 5co, 2-(1-(2-Benzamidoethyl)pyrrolidin-3-yl)-1H-benzo[d]imidazole-4-carboxamide]
- inhibition at 0.00508 µM ([1]; replicate 1, read-out: Inh % 1): 0.116%
- inhibition at 0.00508 µM ([1]; replicate 2, read-out: Inh % 2): -6.8%
- inhibition at 0.0152 µM ([1]; replicate 1, read-out: Inh % 1): 3.3%
- inhibition at 0.0152 µM ([1]; replicate 2, read-out: Inh % 2): -2.8%
- inhibition at 0.0457 µM ([1]; replicate 1, read-out: Inh % 1): -7.2%
- inhibition at 0.0457 µM ([1]; replicate 2, read-out: Inh % 2): -12.8%
- inhibition at 0.41 µM ([1]; replicate 1, read-out: Inh % 1): -3.1%
- inhibition at 0.41 µM ([1]; replicate 2, read-out: Inh % 2): -1.7%
- inhibition at 1.23 µM ([1]; replicate 1, read-out: Inh % 1): 5.2%
- inhibition at 1.23 µM ([1]; replicate 2, read-out: Inh % 2): -9.2%
- inhibition at 3.7 µM ([1]; replicate 1, read-out: Inh % 1): -2%
- inhibition at 3.7 µM ([1]; replicate 2, read-out: Inh % 2): -0.8%
- inhibition at 11.11 µM ([1]; replicate 1, read-out: Inh % 1): 2.4%
- inhibition at 11.11 µM ([1]; replicate 2, read-out: Inh % 2): -2.7%
- inhibition at 33.33 µM ([1]; replicate 1, read-out: Inh % 1): 15.5%
- inhibition at 33.33 µM ([1]; replicate 2, read-out: Inh % 2): 10.6%
- inhibition at 100 µM ([1]; replicate 1, read-out: Inh % 1): 25.7%
- inhibition at 100 µM ([1]; replicate 2, read-out: Inh % 2): 18.3%
- IC50 [1]: > 100000 nM
- inhibition at 0.01 µM ([2]; 10 nM compound, supplement sheet, read-out: 10 nM inhibition% PAPR-1): 38.4%
- inhibition at 0.01 µM ([2]; 10 nM compound, read-out: PARP-1 Inhibition % (10 nM)): 38.4%
- IC50 ([2]; read-out: PARP-1 IC50): 11.1 nM
- inhibition at 0.01 µM ([3]; 10 nM compound, supplement sheet, read-out: 10 nM inhibition% PAPR-2): 66.2%
- inhibition at 0.01 µM ([3]; 10 nM compound, read-out: PARP-2 Inhibition % (10 nM)): 66.2%
- IC50 ([3]; read-out: PARP-2 IC50): 5.7 nM
- IC50 ([3]; supplement sheet, read-out: IC50 PAPR-2): 5.67 nM
- IC50 ([4]; 72 h, CellTiter-Glo): > 100000 nM
- inhibition at 0.00508 µM ([4]; replicate 1, read-out: Inh % 1): -4.9%
- inhibition at 0.00508 µM ([4]; replicate 2, read-out: Inh % 2): -7.9%
- inhibition at 0.0152 µM ([4]; replicate 1, read-out: Inh % 1): 7.4%
- inhibition at 0.0152 µM ([4]; replicate 2, read-out: Inh % 2): -1.7%
- inhibition at 0.0457 µM ([4]; replicate 1, read-out: Inh % 1): 10.8%
- inhibition at 0.0457 µM ([4]; replicate 2, read-out: Inh % 2): 10.6%
- inhibition at […] ([4]; replicate 1, read-out: Inh % 1): 5.7%
- inhibition at […] ([4]; replicate 2, read-out: Inh % 2): 0.8%
- inhibition at 0.41 µM ([4]; replicate 1, read-out: Inh % 1): 7.1%
- inhibition at 0.41 µM ([4]; replicate 2, read-out: Inh % 2): 6.9%
- inhibition at 1.23 µM ([4]; replicate 1, read-out: Inh % 1): 9.2%
- inhibition at 1.23 µM ([4]; replicate 2, read-out: Inh % 2): 5%
- inhibition at 3.7 µM ([4]; replicate 1, read-out: Inh % 1): 25%
- inhibition at 3.7 µM ([4]; replicate 2, read-out: Inh % 2): 11.1%
- inhibition at 11.11 µM ([4]; replicate 1, read-out: Inh % 1): 17.9%
- inhibition at 11.11 µM ([4]; replicate 2, read-out: Inh % 2): -1.4%
- inhibition at 33.33 µM ([4]; replicate 1, read-out: Inh % 1): 16%
- inhibition at 33.33 µM ([4]; replicate 2, read-out: Inh % 2): 13.7%
- inhibition at 100 µM ([4]; replicate 1, read-out: Inh % 1): 29.2%
- inhibition at 100 µM ([4]; replicate 2, read-out: Inh % 2): 25.9%

SMILES: C[C@]1(c2nc3c(C(N)=O)cccc3[nH]2)CCCN1 [pc1, Veliparib, reference compound]
- inhibition at 0.00508 µM ([1]; replicate 1, read-out: Inh % 1): 0.064%
- inhibition at 0.00508 µM ([1]; replicate 2, read-out: Inh % 2): -7.5%
- inhibition at 0.0152 µM ([1]; replicate 1, read-out: Inh % 1): -2.6%
- inhibition at 0.0152 µM ([1]; replicate 2, read-out: Inh % 2): -6.6%
- inhibition at 0.0457 µM ([1]; replicate 1, read-out: Inh % 1): -7.5%
- inhibition at 0.0457 µM ([1]; replicate 2, read-out: Inh % 2): -6.4%
- inhibition at 0.41 µM ([1]; replicate 1, read-out: Inh % 1): -3.2%
- inhibition at 0.41 µM ([1]; replicate 2, read-out: Inh % 2): -9.9%
- inhibition at 1.23 µM ([1]; replicate 1, read-out: Inh % 1): -5.4%
- inhibition at 1.23 µM ([1]; replicate 2, read-out: Inh % 2): -2.1%
- inhibition at 3.7 µM ([1]; replicate 1, read-out: Inh % 1): -2.1%
- inhibition at 3.7 µM ([1]; replicate 2, read-out: Inh % 2): 2.6%
- inhibition at 11.11 µM ([1]; replicate 1, read-out: Inh % 1): 3.2%
- inhibition at 11.11 µM ([1]; replicate 2, read-out: Inh % 2): 2.2%
- inhibition at 33.33 µM ([1]; replicate 1, read-out: Inh % 1): 11.6%
- inhibition at 33.33 µM ([1]; replicate 2, read-out: Inh % 2): 7.4%
- inhibition at 100 µM ([1]; replicate 1, read-out: Inh % 1): 34.3%
- inhibition at 100 µM ([1]; replicate 2, read-out: Inh % 2): 20.3%
- IC50 [1]: > 100000 nM
- inhibition at 0.01 µM ([2]; read-out: 10 nM inhibition% PAPR-1): 54.3%
- inhibition at 0.01 µM ([2]; read-out: PARP-1 Inhibition % (10 nM)): 63.7%
- inhibition at 0.01 µM ([3]; read-out: 10 nM inhibition% PAPR-2): 78.3%
- inhibition at 0.01 µM ([3]; read-out: PARP-2 Inhibition % (10 nM)): 78.3%
- CAPAN-1 IC50 (μM) ([4]; 72 h, CellTiter-Glo): low potency
- LogIC50 ([4]; CAPAN-1, curve-fit output, concentration axis Log (uM)): 2.067
- IC50 ([4]; 72 h, CellTiter-Glo): > 100000 nM
- inhibition at 0.00508 µM ([4]; replicate 1, read-out: Inh % 1): -10.6%
- inhibition at 0.00508 µM ([4]; replicate 2, read-out: Inh % 2): 3.8%
- inhibition at 0.0152 µM ([4]; replicate 1, read-out: Inh % 1): -2.1%
- inhibition at 0.0152 µM ([4]; replicate 2, read-out: Inh % 2): -6.9%
- inhibition at 0.0457 µM ([4]; replicate 1, read-out: Inh % 1): -0.346%
- inhibition at 0.0457 µM ([4]; replicate 2, read-out: Inh % 2): 3%
- inhibition at […] ([4]; replicate 1, read-out: Inh % 1): 9.5%
- inhibition at […] ([4]; replicate 2, read-out: Inh % 2): 7.1%
- inhibition at 0.41 µM ([4]; replicate 1, read-out: Inh % 1): 7.8%
- inhibition at 0.41 µM ([4]; replicate 2, read-out: Inh % 2): -1.8%
- inhibition at 1.23 µM ([4]; replicate 1, read-out: Inh % 1): -10.7%
- inhibition at 1.23 µM ([4]; replicate 2, read-out: Inh % 2): -7.2%
- inhibition at 3.7 µM ([4]; replicate 1, read-out: Inh % 1): -17.8%
- inhibition at 3.7 µM ([4]; replicate 2, read-out: Inh % 2): -16.7%
- inhibition at 11.11 µM ([4]; replicate 1, read-out: Inh % 1): 5%
- inhibition at 11.11 µM ([4]; replicate 2, read-out: Inh % 2): 7.2%
- inhibition at 33.33 µM ([4]; replicate 1, read-out: Inh % 1): 12.5%
- inhibition at 33.33 µM ([4]; replicate 2, read-out: Inh % 2): 11.9%
- inhibition at 100 µM ([4]; replicate 1, read-out: Inh % 1): 43.2%
- inhibition at 100 µM ([4]; replicate 2, read-out: Inh % 2): 42.4%
